Results on four compounds are retold here after PMC6301713, “Zincophorin – biosynthesis in Streptomyces griseus and antibiotic properties” (GMS Infectious Diseases, 2016).

In brackets after ≈: the same amount, converted by molar mass. Read-outs that look alike come from different tables or passages of the source.

For series [1], the system named is S. pneumoniae DSM14378. To be noted: DSM14378, 18 h.
For series [2], the system named is S. pneumoniae clinical isolate 9400. Conditions: clinical isolate 9400, 18 h.
In series [3] the test system is S. pneumoniae DSM20566. To be noted: DSM20566, 18 h.
A short description of series [4]: Cytotoxicity assay, crystal violet staining. It is filed as cell-based, human. Conditions: human. The method, then: (§1) The cytotoxicity of zincophorin, methyl zincophorin, daptomycin (Chemos GmbH, Regenstauf, Germany), and imipenem (Sigma-Aldrich GmbH, Taufkirchen, Germany) was evaluated as described recently, [20]. Briefly, serial twofold compounds concentration were prepared in Eagle’s minimum essential medium supplemented with 2 mM L-glutamine or Dulbecco’s Modified Eagle Medium (Lonza Group Ltd., Basel, Switzerland) and added to three-day-old confluent human lung carcinoma cells (A549; Institute of Molecular Virology, University of Münster, Germany) and Madin-Darby canine kidney cell (MDCK; Friedrich-Loeffler Institute, Riems, Germany) monolayers grown in 96-well plates (Greiner bio-one GmbH, Frickenhausen, Germany), respectively. […] After dye elution and optical density measurement the 50% cytotoxic concentration (CC50) was calculated.

Series [5] has as its system S. pneumoniae D39.
Series [6] relates to S. pneumoniae clinical isolate 8919.
Series [7] has the same test system. To be noted: clinical isolate 8919, 18 h.
The test system of series [8] is S. pneumoniae clinical isolate 8828. To be noted: clinical isolate 8828, 18 h.
Series [9] has as its system S. pneumoniae clinical isolate 9400.
In series [10] the test system is S. pneumoniae clinical isolate 6937.
Series [11] concerns S. pneumoniae D39. Conditions: D39, 18 h.
Series [12] has as its system S. pneumoniae clinical isolate 6937. To be noted: clinical isolate 6937, 18 h.
Series [13] concerns S. pneumoniae DSM14378.
The subject of series [14] is S. pneumoniae DSM20566.
Series [15] has as its system S. pneumoniae clinical isolate 8828.
Series [16] is described as follows: Cytotoxicity assay, crystal violet staining. It counts as cell-based, canine. Conditions: dog. The method, then:
as §1

In series [17] the test system is S. pneumoniae DSM20566. In words: microbe, parasite or virus in culture. Conditions: Streptococcus pneumoniae, DSM20566, 18 h, read-out: MIC (DSM20566).
For series [18], the system named is S. pneumoniae clinical isolate 6937. In words: microbe, parasite or virus in culture. Conditions: Streptococcus pneumoniae, 18 h, read-out: MIC (6937).
Series [19] relates to S. pneumoniae clinical isolate 8919. Description: microbe, parasite or virus in culture. Conditions: Streptococcus pneumoniae, 18 h, read-out: MIC (8919).
In series [20] the test system is S. pneumoniae DSM14378. Description: microbe, parasite or virus in culture. To be noted: Streptococcus pneumoniae, DSM14378, 18 h, read-out: MIC (DSM14378).
Series [21] has as its system S. pneumoniae D39. Description: microbe, parasite or virus in culture. To be noted: Streptococcus pneumoniae, D39, 18 h, read-out: MIC (D39).
Series [22] relates to S. pneumoniae clinical isolate 9400. Description: microbe, parasite or virus in culture. Conditions: Streptococcus pneumoniae, 18 h, read-out: MIC (9400).
Series [23] has as its system S. pneumoniae clinical isolate 8828. In words: microbe, parasite or virus in culture. To be noted: Streptococcus pneumoniae, 18 h, read-out: MIC (8828).
The next series deals with Streptococcus pneumoniae. In words: Antimicrobial assays, all tested S. pneumoniae strains. Conditions: pneumococci; maximum tested concentration 50 µM; data not shown.
For series [24], the system named is Clostridium welchii (Clostridium perfringens). Conditions: cited from earlier work.
The subject of series [25] is human lung carcinoma cells (A549). Description: Cytotoxicity assay, crystal violet staining. Conditions: A549 cells. It counts as cell-based. The method, then:
as §1

For series [26], the system named is Madin-Darby canine kidney cell (MDCK). Description: Cytotoxicity assay, crystal violet staining. To be noted: MDCK cells. It counts as cell-based. As for the experimental part: as §1
The mark [27] stands for this setting: A549 lung carcinoma cells (confluent monolayers), A549 cells, 72 h, maximum tested 100 µM, mean with standard deviation, read-out: 50% cytotoxic concentration (CC50), A549.
Setting [28] is: reference strain D39, biofilm formation inhibited ≥90%, 24 h, TSB, mean with standard deviation.
[29] abbreviates: clinical isolate 9400, biofilm formation inhibited ≥90%, 24 h, TSB, mean with standard deviation.
Where [30] appears, read: clinical isolate 6937, biofilm formation inhibited ≥90%, 24 h, TSB, mean with standard deviation.
Setting [31] is: reference strain DSM14378, biofilm formation inhibited ≥90%, 24 h, TSB, mean with standard deviation.
[32] abbreviates: reference strain DSM20566, biofilm formation inhibited ≥90%, 24 h, TSB, mean with standard deviation.
Where [33] appears, read: MDCK cells (confluent monolayers), MDCK cells, 72 h, maximum tested 100 µM, mean with standard deviation, read-out: 50% cytotoxic concentration (CC50), MDCK.

Consider `CCCCCCCCCC(=O)N[C@@H](Cc1c[nH]c2ccccc12)C(=O)N[C@H](CC(N)=O)C(=O)N[C@@H](CC(=O)O)C(=O)N[C@@H]1C(=O)NCC(=O)N[C@@H](CCCN)C(=O)N[C@@H](CC(=O)O)C(=O)N[C@H](C)C(=O)N[C@@H](CC(=O)O)C(=O)NCC(=O)N[C@H](CO)C(=O)N[C@@H]([C@H](C)CC(=O)O)C(=O)N[C@@H](CC(=O)c2ccccc2N)C(=O)O[C@@H]1C` [daptomycin], for which the “MIC (DSM14378)” value in the series on S. pneumoniae DSM14378 [1] amounted to 0.54 ± 0.18 µM (≈ 0.875 µg/mL). Further, the “MIC (9400)” value in [2] amounted to 0.96 ± 0.56 µM (≈ 1.56 µg/mL). Further, the “MIC (DSM20566)” value in the series on S. pneumoniae DSM20566 [3] was found to be 1.94 ± 0.91 µM (≈ 3.14 µg/mL). The CC50 at 72 h in series [4] and in series [16] was greater than 100 µM each time. The “MBIC (D39)” value in the series with S. pneumoniae D39 [5] (D39, 24 h) turned out to be 6.10 ± 0.79 µM. The “MBIC (8919)” value in series [6] (clinical isolate 8919, 24 h) stood at 0.49 ± 0.26 µM. For the same compound, the “MIC (8919)” value in [7] came to 0.31 ± 0.08 µM (≈ 0.502 µg/mL). In series [8], the “MIC (8828)” value came to 0.86 ± 0.50 µM (≈ 1.39 µg/mL). Also, the “MBIC (9400)” value in series [9] (clinical isolate 9400, 24 h) stood at 2.28 ± 1.81 µM. The “MBIC (6937)” value in series [10] (clinical isolate 6937, 24 h) turned out to be 1.66 ± 1.21 µM. In the series with S. pneumoniae D39 [11], the “MIC (D39)” value was 2.80 ± 0.11 µM (≈ 4.54 µg/mL). Further, the “MIC (6937)” value in series [12] turned out to be 0.48 ± 0.18 µM (≈ 0.778 µg/mL). Also, the “MBIC (DSM14378)” value in the series on S. pneumoniae DSM14378 [13] (DSM14378, 24 h) came out at 1.99 ± 1.38 µM. The “MBIC (DSM20566)” value in the series on S. pneumoniae DSM20566 [14] (DSM20566, 24 h) was 1.92 ± 1.07 µM. Besides, in series [15] (clinical isolate 8828, 24 h), the “MBIC (8828)” value is 0.48 ± 0.21 µM.
As to `C[C@@H](O)[C@H]1C(=O)N2C(C(=O)O)=C(SCCN=CN)C[C@H]12` [imipenem], the MIC in the series with S. pneumoniae DSM20566 [17] was 0.03 ± 0.01 µM (≈ 0.00898 µg/mL); in series [18], 0.01 µM (≈ 0.00299 µg/mL); in [19], 0.49 ± 0.17 µM (≈ 0.147 µg/mL); in the series with S. pneumoniae DSM14378 [20], 0.02 ± 0.01 µM (≈ 0.00599 µg/mL); in the series on S. pneumoniae D39 [21] it was 0.02 µM (≈ 0.00599 µg/mL); in series [22], 0.01 ± 0.01 µM (≈ 0.00299 µg/mL). The MIC in [23] turned out to be 0.02 µM (≈ 0.00599 µg/mL). Further, the CC50 at 72 h in series [4] (setting [27]) was greater than 100 µM. The “MBIC (D39)” value with S. pneumoniae D39 [5] (setting [28]) came out at 0.07 ± 0.03 µM. Moreover, in series [9] (setting [29]), the “MBIC (9400)” value amounted to 0.36 ± 0.02 µM. In addition, the “MBIC (6937)” value in series [10] (setting [30]) was 0.22 ± 0.14 µM. In addition, the “MBIC (DSM14378)” value in the series with S. pneumoniae DSM14378 [13] (setting [31]) amounted to 0.19 ± 0.01 µM. Further, the “MBIC (DSM20566)” value in the series with S. pneumoniae DSM20566 [14] (setting [32]) was determined as 0.06 ± 0.03 µM.
Turning to `CCC[C@@H](C)/C=C(\C)[C@H](O)[C@H](C)/C=C/CC[C@@H](O)[C@H](C)[C@H](O)[C@H](C)[C@H](O)[C@H](C)[C@H]1O[C@H]([C@H](C)C(=O)OC)CC[C@@H]1C` [zincophorin methyl ester], the CC50 at 72 h in series [4] (setting [27]) and in [16] (setting [33]) was greater than 100 µM throughout. For the same compound, the “antibacterial effect (highest concentration without effect)” value in the series on Streptococcus pneumoniae was greater than 50 µM.
`CCCC(C)C=C(C)C(O)C(C)C=CCCC(O)C(C)C(O)C(C)C(O)C(C)C1OC(C(C)C(=O)O)CCC1C` (stereo not drawn) [zincophorin]: in [24], the “activity against Clostridium welchii” value is “particularly active”. Also, the MIC in the series with S. pneumoniae DSM20566 [17] came out at 0.18 ± 0.02 µM (≈ 0.102 µg/mL); in series [18], 0.18 µM (≈ 0.102 µg/mL); in series [19], 0.09 ± 0.01 µM (≈ 0.0512 µg/mL); in the series on S. pneumoniae DSM14378 [20], 0.1 ± 0.05 µM (≈ 0.0569 µg/mL); with S. pneumoniae D39 [21], 0.21 ± 0.11 µM (≈ 0.119 µg/mL); in series [22] it was 0.14 ± 0.07 µM (≈ 0.0796 µg/mL). In [23], the MIC came to 0.22 ± 0.04 µM (≈ 0.125 µg/mL). In addition, the “cytotoxic effects in words, A549” value in series [25] is “strong cytotoxic effects”. Besides, the CC50 at 72 h in [4] (setting [27]) is 1.02 ± 0.63 µM; in series [16] (setting [33]), 0.63 ± 0.27 µM. For the same compound, in the series with S. pneumoniae D39 [5] (setting [28]), the “MBIC (D39)” value was found to be 0.40 ± 0.24 µM. Moreover, the “MBIC (8919)” value in series [6] (clinical isolate 8919, biofilm formation inhibited ≥90%, 24 h, TSB, mean with standard deviation) worked out at 0.15 ± 0.01 µM. The “MBIC (9400)” value in series [9] (setting [29]) was found to be 0.36 ± 0.01 µM. Moreover, the “MBIC (6937)” value in [10] (setting [30]) came to 0.46 ± 0.25 µM. Moreover, the “MBIC (DSM14378)” value in the series with S. pneumoniae DSM14378 [13] (setting [31]) stood at 0.13 ± 0.06 µM. Also, the “MBIC (DSM20566)” value in the series on S. pneumoniae DSM20566 [14] (setting [32]) worked out at 0.17 ± 0.03 µM. Also, the “MBIC (8828)” value in [15] (clinical isolate 8828, biofilm formation inhibited ≥90%, 24 h, TSB, mean with standard deviation) was found to be 0.28 ± 0.06 µM. Also, the “cytotoxic effects in words, MDCK” value in [26] was “strong cytotoxic effects”.
